From patent US11505586B2, “Interaction of Draxin and γ-netrins” (Max-Planck-Gesellschaft zur Foerderung der Wissenschaften …, priority 2014, dated 2022) come the findings set out here.

The target of assay [1] is T1, Netrin-1 (Homo sapiens, UniProt O95631).
T1 construct: made in house; host or cells: HEK293-6E (general AVEXIS method)
Briefly: AVEXIS pairwise binding screen, human proteins. Particulars: both bait/prey orientations. The text has this: (§1) AVEXIS was used to test pairwise binding events in both bait/prey orientations between human DRAXIN, the derived 21 amino acid peptide, human Netrin family members, and two representative Netrin receptors (DCC, UNC5B). The Matn4-bait served as an internal prey-protein control and was used for normalization of the A486 nm values; conditioned medium (CM) serves as negative control; n=3.
(§2) To determine the binding specificity of DRAXIN/Netrin interactions, we carried out a pairwise binding screen between human DRAXIN and human Netrin family members. Except Netrin-5, we included all human Netrin family members consisting of two secreted γ-Netrins (Netrin-1 and Netrin-3) and one secreted (Netrin-4) and two GPI-linked β-Netrins (Netrin-G1 and Netrin-G2) in our binding study. Human DRAXIN and a 21 amino acid Netrin binding fragment derived thereof (SEQ ID NO.: 1) bound to Netrin-1 and Netrin-3 but not to human β-Netrin family members (FIG. 13).

Assay [2] relates to human β-Netrin family members. Briefly: AVEXIS pairwise binding screen, human proteins. Particulars: Netrin-4, Netrin-G1, Netrin-G2.
Source text: as §1, §2

In assay [3] the target is T2, Netrin-3 (Homo sapiens, UniProt O00634).
T2 construct: made in house; host or cells: HEK293-6E (general AVEXIS method)
In words: AVEXIS pairwise binding screen, human proteins. Particulars: both bait/prey orientations.
Source text: as §1, §2

Assay [4] deals with Netrin1a. Briefly: AVEXIS domain mapping with monomeric prey proteins. Particulars: monomeric preys. The format is binding, zebrafish.
Description: For the binding interface mapping experiments we used monomeric prey proteins. The concentration of the monomeric preys has been determined as described for the AVEXIS assay (β ? lactamase enzymatic activity). […] Both prey and bait orientations were tested in the domain mapping screen and two repeats for each orientation had been carried out.
To map down the Netrin1a binding region in DraxinA we generated a series of DraxinA truncations and deletions and tested them for binding against Netrin1a (FIG. 4).
For assay [5], the system named is Netrin1a. Briefly: AVEXIS extracellular protein-protein interaction screen. The assay is classed as binding, zebrafish. Particulars: prey against 141 bait proteins, bait against 191 prey proteins. The text has this: To detect extracellular protein-protein interactions in a high-throughput manner we used the AVEXIS assay as described in Bushell et al. (Bushell et al., 2008) with minor modifications.
In brief: A zebrafish protein library enriched for mainly in neuronal tissues expressed secreted proteins and extracellular domains of cell surface proteins has been assembled. The library consists of prey and bait proteins. Preys are composed of the extracellular domain (ECD) of interest followed by a CD4 tag (rat Cd4d3+4) and a pentamerization domain derived from the rat Comp protein followed by β-lactamase. For the bait proteins the ECDs are fused to a CD4 tag and a biotinylation peptide. […] The proteins in the supernatants have been quantified and normalized.
The bait proteins have been immobilized on streptavidin coated 96 well microtiter plates (one bait/well) and incubated for 1 hour at room temperature. […] Then the absorbance at 486 nm of each well has been measured using a μQuant spectrophotometer (BIO-TEK Instruments, INC). […]
In the primary screen interactions were ‘called’ if the absorbance (at 486 nm) of a well after 1 h of incubation was ≥0.1 and 3 Sigma above the standard deviations of the mean of all wells. All interactions detected in the primary screen have been retested in a validation screen by using independently produced batches of proteins.

The target in assay [6] is Islr2. Briefly: Vasn/Islr2 interaction used to adjust the AVEXIS screen. The assay is classed as binding. To be noted: Vasn (Slit-like2)/Islr2, in preparation. On the procedure: The bait proteins have been immobilized on streptavidin coated 96 well microtiter plates (one bait/well) and incubated for 1 hour at room temperature. After 3 wash steps using HBS as wash buffer the baits have been probed by 50 μl of normalized prey proteins. After one-hour incubation the non-bound preys have been washed away by 2 washes with HBST (0.05% Tween) followed by two HBS washes. Then 50 μl of nitrocefin/well (0.1 mg/ml) has been added and incubated for 1 h at room temperature. Then the absorbance at 486 nm of each well has been measured using a μQuant spectrophotometer (BIO-TEK Instruments, INC). As a positive control for the prey proteins we used the Matn4 ECD as mono-biotinylated bait protein.

T2 sequence (O00634 28-580): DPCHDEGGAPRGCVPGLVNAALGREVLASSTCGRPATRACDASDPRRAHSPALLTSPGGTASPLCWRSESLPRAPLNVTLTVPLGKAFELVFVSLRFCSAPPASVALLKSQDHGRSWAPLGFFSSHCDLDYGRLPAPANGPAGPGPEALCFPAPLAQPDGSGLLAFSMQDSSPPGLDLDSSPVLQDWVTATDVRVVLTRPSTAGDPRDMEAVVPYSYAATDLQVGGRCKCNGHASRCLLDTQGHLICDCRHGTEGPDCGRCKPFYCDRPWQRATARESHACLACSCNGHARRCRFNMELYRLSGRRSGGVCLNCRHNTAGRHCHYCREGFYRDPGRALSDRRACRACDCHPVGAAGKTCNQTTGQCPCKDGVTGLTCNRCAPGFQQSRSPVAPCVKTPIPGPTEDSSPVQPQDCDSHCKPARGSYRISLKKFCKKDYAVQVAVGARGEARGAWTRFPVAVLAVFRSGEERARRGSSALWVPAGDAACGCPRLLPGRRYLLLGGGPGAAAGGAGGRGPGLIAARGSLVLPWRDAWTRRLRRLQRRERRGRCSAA

With “EVMPTLDMALFDWTDYEDLKP (listed as Homo sapiens) [SEQ ID NO.: 1]”, the “binding to Netrin-1” value in assay [1] is on record as “bound”. Also, the “binding to human β-Netrin family members” value in assay [2] is reported as “not”. In addition, the “binding to Netrin-3” value in assay [3] is given as “bound”.
For the substance “EVMPTLDMTLFDWTDYEDMKP (Danio rerio) [21aa DraxinA derived peptide, 21aa fragment (aa232-252) of zebrafish DraxinA, as AVEXIS prey or bait]”, the “binding of DraxinA truncations and deletions to Netrin1a” value in assay [4] was “sufficient for the binding”. In addition, the figures for the “binding specificity against protein library” value in assay [5] (listed as DraxinAaa232-252-bait) and in assay [5] (listed as DraxinAaa232-252-prey) were “only interacted with the Ntn1a-prey” and “only bound to the Ntn1a-bait”, respectively.
“Vasn: Vasn (Slit-like2), binding partner of Islr2, reference weak interaction” gave a Kd in assay [6] of 12 µM.
